In paper PMC5218480 (PLoS ONE, 2017):

System: MV-4-11 cells
Experiment: Gene expression microarray analysis (Affymetrix PrimeView) and GSEA
Assay type: cell-based, human
Design: RFU PODN (11730768_x_at) / Fold change /veh PODN (11730768_x_at) / RFU LINC00158 (11744669_a_at) / Fold change /veh LINC00158 (11744669_a_at) / RFU DUSP10 (11751237_a_at) / Fold change /veh DUSP10 (11751237_a_at) / RFU ID3 (11757404_x_at) / Fold change /veh ID3 (11757404_x_at) / RFU PLEKHG5 (11737974_s_at) / Fold change /veh PLEKHG5 (11737974_s_at) / RFU LRRC4B (11730491_at) / Fold change /veh LRRC4B (11730491_at) / RFU GIMAP4 (11747438_a_at) / Fold change /veh GIMAP4 (11747438_a_at) / RFU KRT8 (11758183_x_at) / Fold change /veh KRT8 (11758183_x_at) / RFU CNN1 (11734310_a_at) / Fold change /veh CNN1 (11734310_a_at) / RFU VPS37D (11726825_at) / Fold change /veh VPS37D (11726825_at) / RFU C10orf10 (11716522_x_at) / Fold change /veh C10orf10 (11716522_x_at) / RFU KIR2DL2 /// KIR2DL4 /// KIR2DL5A /// KIR2DL5B /// KIR2DS1 /// KIR2DS2 /// KIR2DS3 /// KIR2DS4 /// KIR3DL3 /// KIR3DL3 /// KIR3DS1 (11738374_at) / Fold change /veh KIR2DL2 /// KIR2DL4 /// KIR2DL5A /// KIR2DL5B /// KIR2DS1 /// KIR2DS2 /// KIR2DS3 /// KIR2DS4 /// KIR3DL3 /// KIR3DL3 /// KIR3DS1 (11738374_at) / RFU C1QL1 (11718748_at) / Fold change /veh C1QL1 (11718748_at) / RFU TMPRSS4 (11747572_a_at) / Fold change /veh TMPRSS4 (11747572_a_at) / RFU HAMP (11756126_x_at) / Fold change /veh HAMP (11756126_x_at) / RFU RNFT2 (11725882_a_at) / Fold change /veh RNFT2 (11725882_a_at) / RFU NR4A2 (11747474_a_at) / Fold change /veh NR4A2 (11747474_a_at) / RFU ABCC12 (11746883_a_at) / Fold change /veh ABCC12 (11746883_a_at) / RFU TMEM136 (11760407_x_at) / Fold change /veh TMEM136 (11760407_x_at) / RFU CLDN22 /// WWC2 (11732394_at) / Fold change /veh CLDN22 /// WWC2 (11732394_at) / RFU HLA-DPB1 (11760878_x_at) / Fold change /veh HLA-DPB1 (11760878_x_at) / RFU SPINT1 (11716480_a_at) / Fold change /veh SPINT1 (11716480_a_at) / RFU GAP43 (11754022_s_at) / Fold change /veh GAP43 (11754022_s_at) / RFU A4GNT (11735810_at) / Fold change /veh A4GNT (11735810_at) / RFU PRB3 (11715151_x_at) / Fold change /veh PRB3 (11715151_x_at) / RFU TUBB4B (11761932_at) / Fold change /veh TUBB4B (11761932_at) / RFU CAPN14 (11732068_a_at) / Fold change /veh CAPN14 (11732068_a_at) / RFU TMCC2 (11721928_a_at) / Fold change /veh TMCC2 (11721928_a_at) / RFU IRGQ (11745062_a_at) / Fold change /veh IRGQ (11745062_a_at) / RFU FAM174B (11720279_a_at) / Fold change /veh FAM174B (11720279_a_at) / RFU TMPRSS4 (11748680_a_at) / Fold change /veh TMPRSS4 (11748680_a_at) / RFU FAM212B (11763350_a_at) / Fold change /veh FAM212B (11763350_a_at) / RFU PLEKHG5 (11743358_a_at) / Fold change /veh PLEKHG5 (11743358_a_at) / RFU ZSCAN30 (11745921_a_at) / Fold change /veh ZSCAN30 (11745921_a_at) / RFU CMKLR1 (11741424_a_at) / Fold change /veh CMKLR1 (11741424_a_at) / RFU LOC101060620 /// MAPK8IP1 (11723275_at) / Fold change /veh LOC101060620 /// MAPK8IP1 (11723275_at) / RFU SPTSSB (11747773_x_at) / Fold change /veh SPTSSB (11747773_x_at) / RFU PRSS12 (11739890_at) / Fold change /veh PRSS12 (11739890_at) / RFU BIN1 (11741810_x_at) / Fold change /veh BIN1 (11741810_x_at) / RFU WNT11 (11732464_a_at) / Fold change /veh WNT11 (11732464_a_at) / RFU C10orf10 (11716521_a_at) / Fold change /veh C10orf10 (11716521_a_at) / RFU C5orf56 (11738089_at) / Fold change /veh C5orf56 (11738089_at) / RFU CYB561 (11721691_x_at) / Fold change /veh CYB561 (11721691_x_at) / RFU ANKRD19P (11752326_a_at) / Fold change /veh ANKRD19P (11752326_a_at) / RFU OR2T12 /// OR2T33 /// OR2T8 (11738714_s_at) / Fold change /veh OR2T12 /// OR2T33 /// OR2T8 (11738714_s_at) / RFU VCAN (11748164_a_at) / Fold change /veh VCAN (11748164_a_at) / RFU JSRP1 (11732532_at) / Fold change /veh JSRP1 (11732532_at) / RFU KRTAP10-11 (11738290_x_at) / Fold change /veh KRTAP10-11 (11738290_x_at) / RFU MYO3A (11730013_a_at) / Fold change /veh MYO3A (11730013_a_at) / RFU EBF3 (11725865_a_at) / Fold change /veh EBF3 (11725865_a_at) / RFU CAMK2N1 (11719241_x_at) / Fold change /veh CAMK2N1 (11719241_x_at) / RFU C5orf56 (11738088_a_at) / Fold change /veh C5orf56 (11738088_a_at) / RFU OLFML3 (11715873_a_at) / Fold change /veh OLFML3 (11715873_a_at) / RFU LOC100653217 /// NTM (11731650_a_at) / Fold change /veh LOC100653217 /// NTM (11731650_a_at) / RFU MAPK11 (11762145_a_at) / Fold change /veh MAPK11 (11762145_a_at) / RFU FIZ1 (11724087_x_at) / Fold change /veh FIZ1 (11724087_x_at) / RFU OASL (11726364_x_at) / Fold change /veh OASL (11726364_x_at) / RFU SOX15 (11748057_x_at) / Fold change /veh SOX15 (11748057_x_at) / RFU CD79A (11719716_a_at) / Fold change /veh CD79A (11719716_a_at) / RFU HIST1H1D (11736915_at) / Fold change /veh HIST1H1D (11736915_at) / RFU CASKIN2 (11723855_a_at) / Fold change /veh CASKIN2 (11723855_a_at) / RFU LOC730098 (11760151_x_at) / Fold change /veh LOC730098 (11760151_x_at) / RFU OR4N2 (11742367_at) / Fold change /veh OR4N2 (11742367_at) / RFU PRRT2 (11749266_a_at) / Fold change /veh PRRT2 (11749266_a_at) / RFU SNX32 (11753110_a_at) / Fold change /veh SNX32 (11753110_a_at) / RFU CDHR5 (11726645_a_at) / Fold change /veh CDHR5 (11726645_a_at) / RFU RCAN1 (11760418_a_at) / Fold change /veh RCAN1 (11760418_a_at) / RFU FAM167A (11723789_a_at) / Fold change /veh FAM167A (11723789_a_at) / RFU FAM26E (11764081_at) / Fold change /veh FAM26E (11764081_at) / RFU ISYNA1 (11749810_s_at) / Fold change /veh ISYNA1 (11749810_s_at) / RFU ACY1 (11761880_at) / Fold change /veh ACY1 (11761880_at) / RFU 11764098_at / Fold change /veh 11764098_at / RFU SAMD14 (11745864_x_at) / Fold change /veh SAMD14 (11745864_x_at) / RFU NPB (11741838_a_at) / Fold change /veh NPB (11741838_a_at) / RFU TMPRSS6 (11731388_a_at) / Fold change /veh TMPRSS6 (11731388_a_at) / RFU KRTAP10-2 (11738614_at) / Fold change /veh KRTAP10-2 (11738614_at) / RFU ARHGAP8 /// PRR5-ARHGAP8 (11727945_x_at) / Fold change /veh ARHGAP8 /// PRR5-ARHGAP8 (11727945_x_at) / RFU KRTAP5-7 /// NADSYN1 (11734609_at) / Fold change /veh KRTAP5-7 /// NADSYN1 (11734609_at) / RFU RASL12 (11751679_a_at) / Fold change /veh RASL12 (11751679_a_at) / RFU CDKN2B (11736163_a_at) / Fold change /veh CDKN2B (11736163_a_at) / RFU PRF1 (11729649_at) / Fold change /veh PRF1 (11729649_at) / RFU, ZNF638 /// ZNF638-IT1 / Fold change vs veh, ZNF638 /// ZNF638-IT1 / RFU, PANK3 / Fold change vs veh, PANK3 / RFU, SH3YL1 / Fold change vs veh, SH3YL1 / RFU, ZEB2 / Fold change vs veh, ZEB2 / RFU, NRIP1 / Fold change vs veh, NRIP1 / RFU, PTTG1IP / Fold change vs veh, PTTG1IP / RFU, CAPN2 / Fold change vs veh, CAPN2 / RFU, MED14 / Fold change vs veh, MED14 / RFU, SNORA58 / Fold change vs veh, SNORA58 / RFU, C1orf63 / Fold change vs veh, C1orf63 / RFU, LRRFIP1 / Fold change vs veh, LRRFIP1 / RFU, NDUFAF7 / Fold change vs veh, NDUFAF7 / RFU, SLC12A2 / Fold change vs veh, SLC12A2 / RFU, IBTK / Fold change vs veh, IBTK / RFU, ESF1 / Fold change vs veh, ESF1 / Fold change vs veh, TMEM50B / RFU, TAOK1 / Fold change vs veh, TAOK1 / RFU, ACBD3 / Fold change vs veh, ACBD3 / RFU, TMA16 / Fold change vs veh, TMA16 / RFU, RWDD3 / Fold change vs veh, RWDD3 / RFU, BCAT1 / Fold change vs veh, BCAT1 / RFU, EDEM3 / Fold change vs veh, EDEM3 / RFU, TMEM33 / Fold change vs veh, TMEM33 / RFU, WDR75 / Fold change vs veh, WDR75 / RFU, AHCTF1 / Fold change vs veh, AHCTF1 / RFU, TFRC / Fold change vs veh, TFRC / RFU, ZDHHC17 / Fold change vs veh, ZDHHC17 / RFU, NOM1 / Fold change vs veh, NOM1 / RFU, ARL8B / Fold change vs veh, ARL8B / RFU, ZBTB11 / Fold change vs veh, ZBTB11 / RFU, TAMM41 / Fold change vs veh, TAMM41 / RFU, KIAA1704 /// LOC100996395 / Fold change vs veh, KIAA1704 /// LOC100996395 / RFU, ING1 / Fold change vs veh, ING1 / RFU, TRMT61B / Fold change vs veh, TRMT61B / RFU, FUBP3 / Fold change vs veh, FUBP3 / RFU, TP53 / Fold change vs veh, TP53 / RFU, TNKS2 / Fold change vs veh, TNKS2 / RFU, ZFP14 / Fold change vs veh, ZFP14 / RFU, ACTR2 / Fold change vs veh, ACTR2 / RFU, PPP3R1 / Fold change vs veh, PPP3R1 / RFU, PIK3R1 / Fold change vs veh, PIK3R1 / RFU, HNRNPA1 / Fold change vs veh, HNRNPA1 / RFU, RNF170 / Fold change vs veh, RNF170 / RFU, ZNF28 / Fold change vs veh, ZNF28 / RFU, RNGTT / Fold change vs veh, RNGTT / RFU, OGT / Fold change vs veh, OGT / RFU, BRD1 / Fold change vs veh, BRD1 / RFU, MARS / Fold change vs veh, MARS / RFU, ZNF655 / Fold change vs veh, ZNF655 / RFU, FAHD1 / Fold change vs veh, FAHD1 / RFU, BDP1 / Fold change vs veh, BDP1 / RFU, LRRCC1 / Fold change vs veh, LRRCC1 / RFU, ARID1A / Fold change vs veh, ARID1A / RFU, ZNF146 / Fold change vs veh, ZNF146 / RFU, ZNF330 / Fold change vs veh, ZNF330 / RFU, GPN3 / Fold change vs veh, GPN3 / RFU, C9orf123 / Fold change vs veh, C9orf123 / RFU, N4BP2L2 / Fold change vs veh, N4BP2L2 / RFU, ARFIP1 / Fold change vs veh, ARFIP1 / RFU, FAM179B / Fold change vs veh, FAM179B / RFU, BCL10 / Fold change vs veh, BCL10 / RFU, UHRF1BP1L / Fold change vs veh, UHRF1BP1L / RFU, BET1 / Fold change vs veh, BET1 / RFU, CNOT2 / Fold change vs veh, CNOT2 / RFU, ZNF268 / Fold change vs veh, ZNF268 / Fold change vs veh, ZNF507 / RFU, DGCR2 / Fold change vs veh, DGCR2 / RFU, WDSUB1 / Fold change vs veh, WDSUB1 / Fold change vs veh, HSP90B1 /// MIR3652 / RFU, ADSS / Fold change vs veh, ADSS / RFU, GK / Fold change vs veh, GK / RFU, ZNF148 / Fold change vs veh, ZNF148 / RFU, TAF9 / Fold change vs veh, TAF9 / RFU, SLC1A5 / Fold change vs veh, SLC1A5 / RFU, SLMO2 / Fold change vs veh, SLMO2 / RFU, ABCC4 / Fold change vs veh, ABCC4 / RFU, LOC101060439 /// RAP1B / Fold change vs veh, LOC101060439 /// RAP1B / RFU, RFX7 / Fold change vs veh, RFX7 / RFU, GTPBP10 / Fold change vs veh, GTPBP10 / RFU, CNEP1R1 / Fold change vs veh, CNEP1R1 / RFU, BIVM-ERCC5 /// ERCC5 / Fold change vs veh, BIVM-ERCC5 /// ERCC5 / RFU, ILF3 / Fold change vs veh, ILF3 / RFU 11762660_at / Fold change /veh 11762660_at / RFU VCAN (11757783_s_at) / Fold change /veh VCAN (11757783_s_at) / RFU DDX43 (11728927_at) / Fold change /veh DDX43 (11728927_at) / RFU KRT8 (11758188_x_at) / Fold change /veh KRT8 (11758188_x_at) / RFU NKD1 (11759106_at) / Fold change /veh NKD1 (11759106_at) / RFU SRD5A1 (11742802_a_at) / Fold change /veh SRD5A1 (11742802_a_at) / RFU TPSAB1 /// TPSB2 (11721975_s_at) / Fold change /veh TPSAB1 /// TPSB2 (11721975_s_at) / RFU GSTM3 (11746129_a_at) / Fold change /veh GSTM3 (11746129_a_at) / RFU IL23R (11737362_x_at) / Fold change /veh IL23R (11737362_x_at) / RFU TMEM51 (11727254_a_at) / Fold change /veh TMEM51 (11727254_a_at) / RFU PIWIL2 (11732686_x_at) / Fold change /veh PIWIL2 (11732686_x_at) / RFU ORM1 (11744905_x_at) / Fold change /veh ORM1 (11744905_x_at) / RFU CCDC152 (11743942_at) / Fold change /veh CCDC152 (11743942_at) / RFU ECM1 (11717891_a_at) / Fold change /veh ECM1 (11717891_a_at) / RFU IL23R (11748794_a_at) / Fold change /veh IL23R (11748794_a_at) / RFU TNFAIP8L3 (11732012_x_at) / Fold change /veh TNFAIP8L3 (11732012_x_at) / RFU MBOAT4 (11741988_at) / Fold change /veh MBOAT4 (11741988_at) / RFU 11764193_at / Fold change /veh 11764193_at / RFU TMEM53 (11763286_at) / Fold change /veh TMEM53 (11763286_at) / RFU MAGEB2 (11727129_at) / Fold change /veh MAGEB2 (11727129_at) / RFU TMEM200A (11744735_a_at) / Fold change /veh TMEM200A (11744735_a_at) / RFU CCDC152 (11751479_a_at) / Fold change /veh CCDC152 (11751479_a_at) / RFU FAM211A (11726209_a_at) / Fold change /veh FAM211A (11726209_a_at) / RFU RGS16 (11746705_a_at) / Fold change /veh RGS16 (11746705_a_at) / RFU VCAN (11755009_s_at) / Fold change /veh VCAN (11755009_s_at) / RFU RHOB (11743442_s_at) / Fold change /veh RHOB (11743442_s_at) / RFU RGS16 (11720943_a_at) / Fold change /veh RGS16 (11720943_a_at) / RFU RGS16 (11720944_at) / Fold change /veh RGS16 (11720944_at) / RFU, VPS4B / Fold change vs veh, VPS4B / RFU, CREB1 / Fold change vs veh, CREB1 / RFU, DNAJC13 / Fold change vs veh, DNAJC13 / RFU, GNAQ / Fold change vs veh, GNAQ / RFU, CDK5R1 / Fold change vs veh, CDK5R1 / RFU, ZRANB3 / Fold change vs veh, ZRANB3 / RFU, CUL4A / Fold change vs veh, CUL4A / RFU, CCNY / Fold change vs veh, CCNY / RFU, UFL1 / Fold change vs veh, UFL1 / RFU, COG3 / Fold change vs veh, COG3 / RFU, DIAPH2 / Fold change vs veh, DIAPH2 / RFU, SKA2 / Fold change vs veh, SKA2 / RFU, AFF3 / Fold change vs veh, AFF3 / RFU, LMF1 / Fold change vs veh, LMF1 / RFU, IPO11 / Fold change vs veh, IPO11 / RFU, DFFB / Fold change vs veh, DFFB / RFU, FOXP1 / Fold change vs veh, FOXP1 / RFU, CARD8 / Fold change vs veh, CARD8 / RFU, STRN3 / Fold change vs veh, STRN3 / RFU, ADK / Fold change vs veh, ADK / RFU, RASSF2 / Fold change vs veh, RASSF2 / RFU, WIPF1 / Fold change vs veh, WIPF1 / RFU, LARP1B / Fold change vs veh, LARP1B / RFU, RASA1 / Fold change vs veh, RASA1 / RFU, RB1 / Fold change vs veh, RB1 / RFU, PPFIA1 / Fold change vs veh, PPFIA1 / RFU, MAT2A / Fold change vs veh, MAT2A / RFU, CCT5 / Fold change vs veh, CCT5 / RFU, WDR92 / Fold change vs veh, WDR92 / RFU, CUX1 / Fold change vs veh, CUX1 / RFU, TTC7A / Fold change vs veh, TTC7A / RFU, TMEM135 / Fold change vs veh, TMEM135 / RFU, DEPTOR / Fold change vs veh, DEPTOR / RFU, CPM / Fold change vs veh, CPM / RFU, DNAJB6 / Fold change vs veh, DNAJB6 / RFU, CACNA2D3 / Fold change vs veh, CACNA2D3 / RFU, DTX4 / Fold change vs veh, DTX4 / RFU, TFCP2 / Fold change vs veh, TFCP2 / RFU, GMCL1 /// GMCL1P1 / Fold change vs veh, GMCL1 /// GMCL1P1 / RFU, AEBP2 / Fold change vs veh, AEBP2 / RFU, SNHG1 /// SNORD22 /// SNORD25 /// SNORD26 /// SNORD27 /// SNORD28 /// SNORD29 /// SNORD31 / Fold change vs veh, SNHG1 /// SNORD22 /// SNORD25 /// SNORD26 /// SNORD27 /// SNORD28 /// SNORD29 /// SNORD31 / Fold change (Aza/veh), C12orf56 (ProbeSet 11735607_a_at) / Fold change (ACY-1035/veh), C12orf56 (ProbeSet 11735607_a_at) / Fold change (Aza/veh), FGFR1OP (ProbeSet 11751329_s_at) / Fold change (ACY-1035/veh), FGFR1OP (ProbeSet 11751329_s_at) / Fold change (Aza/veh), VPS36 (ProbeSet 11739960_a_at) / Fold change (ACY-1035/veh), VPS36 (ProbeSet 11739960_a_at) / RFU SYPL1 (11715823_x_at) / Fold change /veh SYPL1 (11715823_x_at) / RFU IGFBP7 (11715501_s_at) / Fold change /veh IGFBP7 (11715501_s_at) / RFU REEP3 (11722064_at) / Fold change /veh REEP3 (11722064_at) / RFU IGLL1 (11728026_x_at) / Fold change /veh IGLL1 (11728026_x_at): dose or concentration left out as unconfirmed
Conditions: ProbeSet 11755436_x_at; LIST B

Nc1ccc(-c2cccs2)cc1NC(=O)c1ccc2c(c1)cc(C1CC1)n2CCN1CCOCC1 [ACY-1035]
RFU, ARID1A: 56.79 RFU
